Source: US20090137572A1, “2-substituted-4-heteroaryl-pyrimidines useful for the treatment of proliferative disorders” (priority 2004, published 2009)
Read-outs that look alike come from different tables or passages of the source.

Experiments:
Type in all cases: biochemical
[1] = target: T1, protein kinases (panel of Table 4) (Homo sapiens, UniProt P35968); assay: Kinase selectivity profile, kinase inhibition IC50 (Table 4), ATP 100 μM; details: kinase VEGFR2
T1 construct: other: kinase VEGFR2; ATP 100 μM
Protocol: (§1) For the assays shown in Table 3, the kinases were assayed at the following ATP concentrations: SAPK4, PKBΔph, GSK3b, SAPK3, CK2, MKK1, PIM2, IKKB, ERK8, and PRK2 at 5 μM; JNK, PRAK, ROCK-II, SAPK2b, CDK2, CHK1, MSK1, CSK, P70S6K, PKA, CK1, MAPKAP-K2, SGK, PKCa, PDK1, NEK 7, and MAPKAP-K3 at 20 μM; SAPK2a, LCK, AMPK, MAPK2, DYRK1a, MAPKAP-K1a, NEK-6, NEK2a, PBK, CAMK-1, SRPK-1, JNK3, MNK2, RSK2, MNK1, PKBB, and SmMLCK at 50 μM. For the assays in Table 4 the ATP concentration was 100 μM throughout.

CDK1-cyclin B = CDK1-cyclin B (Homo sapiens, UniProt P06493); assay: Kinase assay (radioactive phosphate incorporation), CDK1-cyclin B; details: read-out: Kinase Inhibition pIC50 CDK1-cyclin B (converted)
Summary of the method: (§2)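 Inhibition measured as 32P transfer from ATP (100 μM, 15 mM MgCl2) onto peptide substrates at 30° C. Each assay used 2-4 μg active recombinant enzyme in pH 7.4 buffer. Reactions stopped on ice, filtered, acid-washed and counted; compounds diluted into 10% DMSO in assay buffer.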

CDK9/cyclin T1 = CDK9/cyclin T1 (Homo sapiens, UniProt P50750); assay: CDK 9 assay (CTD peptide substrate); details: read-out: Kinase Inhibition pIC50 CDK9-cyclin T1 (converted)
Summary of the method: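 32P transfer from 100 μM ATP (trace [γ-32P]ATP) to a biotinyl CTD (YSPTSPS)4 peptide was measured after 45 min at 30 °C in pH 7.2 MOPS buffer, 15 mM MgCl2, using recombinant human CDK7/cyclin H or CDK9/cyclin T1. Signal read by filter binding and scintillation counting.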

GSK3b = GSK3b (Homo sapiens, UniProt P49841); assay: Kinase assay (radioactive phosphate incorporation), GSK-3b; details: read-out: Kinase Inhibition pIC50 GSK-3b (converted)
Summary of the method: as §2

Aurora A kinase = target: T2, Aurora A kinase (Homo sapiens, UniProt O14965); assay: Aurora-A (human) kinase assay (Kemptide substrate); details: pIC50 is -log(IC50, M); 15 μM ATP; read-out: Kinase Inhibition pIC50 Aurora A kinase (converted)
T2 construct: purchased
T2 sequence (O14965 1-403): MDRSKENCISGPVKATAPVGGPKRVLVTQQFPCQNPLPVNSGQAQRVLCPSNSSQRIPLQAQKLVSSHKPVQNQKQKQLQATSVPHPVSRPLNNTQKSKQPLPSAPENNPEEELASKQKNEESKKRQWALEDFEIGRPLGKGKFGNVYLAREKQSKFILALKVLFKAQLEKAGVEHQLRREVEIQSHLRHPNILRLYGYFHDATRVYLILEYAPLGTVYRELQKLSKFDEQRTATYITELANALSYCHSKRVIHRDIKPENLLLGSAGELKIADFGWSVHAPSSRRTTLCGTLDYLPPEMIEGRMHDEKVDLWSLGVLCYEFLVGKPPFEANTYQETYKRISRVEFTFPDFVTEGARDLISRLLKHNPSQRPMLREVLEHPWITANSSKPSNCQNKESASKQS
Summary of the method: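 Kemptide (LRRASLG, 200 μM) phosphorylation by 5-10 ng commercial aurora-A measured as [γ-33P] incorporation at 15 μM ATP with 10 mM Mg acetate, pH 7.0 MOPS buffer. Reaction ran 40 min at room temperature; acid-stopped, captured on P81 filters, scintillation read.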

[2] = target: T3, protein kinases (panel of Table 4) (Homo sapiens, UniProt P24941); assay: Kinase selectivity profile, kinase inhibition IC50 (Table 4), ATP 100 μM
T3 construct: other: kinase CDK2A; ATP 100 μM; other: kinase CDK2E
Protocol: as §1

CDK2-cycline E = CDK2-cycline E (Homo sapiens, UniProt P24941); assay: Kinase assay (radioactive phosphate incorporation), CDK2-cyclin E; details: read-out: Kinase Inhibition pIC50 CDK2-cycline E (converted)
Summary of the method: as §2

CDK2-cyclin A = CDK2-cyclin A (Homo sapiens, UniProt P24941); assay: Kinase assay (radioactive phosphate incorporation), CDK2-cyclin A; details: read-out: Kinase Inhibition pIC50 CDK2-cyclin A (converted)
Summary of the method: as §2

[3] = kinase CDK2A, read-out: Kinase inhibition IC50, CDK2A
[4] = kinase CDK2E, read-out: Kinase inhibition IC50, CDK2E

GSK3b, sequence (P49841 whole entry, species assumed): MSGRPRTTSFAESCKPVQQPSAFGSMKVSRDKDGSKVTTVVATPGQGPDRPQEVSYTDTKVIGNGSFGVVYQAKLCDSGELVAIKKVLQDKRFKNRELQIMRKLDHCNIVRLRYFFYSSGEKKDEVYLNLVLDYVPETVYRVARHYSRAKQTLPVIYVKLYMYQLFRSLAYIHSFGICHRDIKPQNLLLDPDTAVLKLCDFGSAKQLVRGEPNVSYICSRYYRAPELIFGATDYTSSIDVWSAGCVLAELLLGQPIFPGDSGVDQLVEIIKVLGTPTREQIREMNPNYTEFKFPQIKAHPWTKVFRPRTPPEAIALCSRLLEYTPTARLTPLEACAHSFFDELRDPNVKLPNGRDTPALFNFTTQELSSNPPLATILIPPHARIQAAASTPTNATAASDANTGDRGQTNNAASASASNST
CDK9/cyclin T1, sequence (P50750 whole entry): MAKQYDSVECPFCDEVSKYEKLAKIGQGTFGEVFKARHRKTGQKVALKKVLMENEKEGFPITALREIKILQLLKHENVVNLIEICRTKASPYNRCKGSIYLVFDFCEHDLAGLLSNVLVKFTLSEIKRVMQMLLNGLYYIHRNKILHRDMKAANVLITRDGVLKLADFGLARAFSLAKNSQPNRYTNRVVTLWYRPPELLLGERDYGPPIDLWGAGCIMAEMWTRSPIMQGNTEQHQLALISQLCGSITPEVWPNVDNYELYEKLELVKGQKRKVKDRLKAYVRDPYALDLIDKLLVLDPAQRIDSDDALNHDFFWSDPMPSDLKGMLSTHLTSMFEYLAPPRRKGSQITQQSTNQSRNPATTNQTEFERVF
CDK9/cyclin T1, sequence (O60563 whole entry partner): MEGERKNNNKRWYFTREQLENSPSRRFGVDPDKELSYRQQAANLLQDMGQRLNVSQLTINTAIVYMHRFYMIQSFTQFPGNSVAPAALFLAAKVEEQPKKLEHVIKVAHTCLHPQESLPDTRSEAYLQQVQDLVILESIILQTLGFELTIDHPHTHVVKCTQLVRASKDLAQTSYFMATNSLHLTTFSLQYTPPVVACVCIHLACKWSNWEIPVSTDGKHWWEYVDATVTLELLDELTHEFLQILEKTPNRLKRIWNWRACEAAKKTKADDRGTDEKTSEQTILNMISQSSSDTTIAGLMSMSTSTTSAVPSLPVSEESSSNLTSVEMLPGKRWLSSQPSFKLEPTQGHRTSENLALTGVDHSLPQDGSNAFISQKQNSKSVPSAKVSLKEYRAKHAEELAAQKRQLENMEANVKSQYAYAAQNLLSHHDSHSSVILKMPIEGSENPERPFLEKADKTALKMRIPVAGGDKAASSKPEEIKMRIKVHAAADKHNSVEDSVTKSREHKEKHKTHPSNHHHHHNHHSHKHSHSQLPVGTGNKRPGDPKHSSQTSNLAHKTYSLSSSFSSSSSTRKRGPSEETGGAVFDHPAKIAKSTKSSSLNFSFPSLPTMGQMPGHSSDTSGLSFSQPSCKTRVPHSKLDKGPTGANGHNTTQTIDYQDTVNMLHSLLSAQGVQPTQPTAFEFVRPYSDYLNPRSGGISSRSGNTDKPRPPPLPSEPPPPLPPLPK
CDK1-cyclin B, sequence (P06493 whole entry): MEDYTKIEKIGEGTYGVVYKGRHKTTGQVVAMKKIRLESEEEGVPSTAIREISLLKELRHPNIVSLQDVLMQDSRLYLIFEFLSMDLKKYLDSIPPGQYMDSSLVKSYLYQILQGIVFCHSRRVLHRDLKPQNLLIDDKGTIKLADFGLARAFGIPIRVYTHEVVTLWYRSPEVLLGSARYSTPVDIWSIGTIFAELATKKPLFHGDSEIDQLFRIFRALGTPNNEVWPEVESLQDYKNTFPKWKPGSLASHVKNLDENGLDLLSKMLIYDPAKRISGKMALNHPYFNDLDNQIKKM
CDK1-cyclin B, sequence (P14635 whole entry partner): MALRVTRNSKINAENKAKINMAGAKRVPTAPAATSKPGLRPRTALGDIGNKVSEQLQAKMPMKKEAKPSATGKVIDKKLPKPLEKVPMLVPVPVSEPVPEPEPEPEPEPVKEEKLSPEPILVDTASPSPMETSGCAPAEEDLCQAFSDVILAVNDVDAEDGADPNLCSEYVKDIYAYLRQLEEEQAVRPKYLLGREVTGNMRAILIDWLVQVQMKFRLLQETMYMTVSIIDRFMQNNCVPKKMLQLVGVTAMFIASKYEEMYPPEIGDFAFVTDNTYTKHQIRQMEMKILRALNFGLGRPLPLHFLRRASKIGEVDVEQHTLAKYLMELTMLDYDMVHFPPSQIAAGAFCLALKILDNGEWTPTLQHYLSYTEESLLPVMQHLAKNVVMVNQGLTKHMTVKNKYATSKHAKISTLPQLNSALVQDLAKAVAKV
T1 sequence (P35968 whole entry): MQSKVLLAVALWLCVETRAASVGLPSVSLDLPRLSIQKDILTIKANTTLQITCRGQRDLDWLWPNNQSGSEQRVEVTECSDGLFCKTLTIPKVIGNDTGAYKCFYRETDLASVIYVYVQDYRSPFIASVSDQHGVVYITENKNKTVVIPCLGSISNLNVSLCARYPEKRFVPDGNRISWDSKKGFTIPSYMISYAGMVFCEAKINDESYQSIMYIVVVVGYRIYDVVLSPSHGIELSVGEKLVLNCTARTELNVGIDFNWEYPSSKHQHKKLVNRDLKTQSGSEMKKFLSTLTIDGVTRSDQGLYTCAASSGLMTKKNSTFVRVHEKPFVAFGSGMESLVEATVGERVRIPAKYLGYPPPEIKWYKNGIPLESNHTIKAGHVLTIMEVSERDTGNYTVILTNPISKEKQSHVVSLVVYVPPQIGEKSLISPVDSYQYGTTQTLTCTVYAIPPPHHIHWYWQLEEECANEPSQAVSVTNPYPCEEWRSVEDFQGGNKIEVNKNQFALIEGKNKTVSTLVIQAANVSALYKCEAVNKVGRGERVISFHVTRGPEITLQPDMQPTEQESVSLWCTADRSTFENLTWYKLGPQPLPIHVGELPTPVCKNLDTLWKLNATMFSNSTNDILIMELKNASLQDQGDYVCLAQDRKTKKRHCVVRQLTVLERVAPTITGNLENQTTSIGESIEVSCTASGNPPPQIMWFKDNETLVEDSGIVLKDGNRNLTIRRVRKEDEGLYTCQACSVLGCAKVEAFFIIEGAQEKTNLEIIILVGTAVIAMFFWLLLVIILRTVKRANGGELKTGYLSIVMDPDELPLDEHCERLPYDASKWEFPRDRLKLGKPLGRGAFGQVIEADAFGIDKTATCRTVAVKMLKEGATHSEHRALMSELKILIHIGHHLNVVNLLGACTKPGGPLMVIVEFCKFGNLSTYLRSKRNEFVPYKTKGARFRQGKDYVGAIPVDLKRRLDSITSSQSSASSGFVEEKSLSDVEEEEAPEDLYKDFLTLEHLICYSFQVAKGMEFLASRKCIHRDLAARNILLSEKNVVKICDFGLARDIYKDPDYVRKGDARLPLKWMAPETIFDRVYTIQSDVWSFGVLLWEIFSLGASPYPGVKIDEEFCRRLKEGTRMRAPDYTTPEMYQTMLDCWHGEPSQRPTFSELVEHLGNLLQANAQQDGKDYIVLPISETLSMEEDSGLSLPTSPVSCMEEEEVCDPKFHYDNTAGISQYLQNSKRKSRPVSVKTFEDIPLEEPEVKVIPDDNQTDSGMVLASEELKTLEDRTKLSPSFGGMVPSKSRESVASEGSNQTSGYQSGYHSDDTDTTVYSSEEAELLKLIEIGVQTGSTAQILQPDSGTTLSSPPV

CNc1nc(C)c(-c2ccnc(Nc3cccc(S(N)(=O)=O)c3)n2)s1 [Compound 19, 3-[4-(4-Methyl-2-methylamino-thiazol-5-yl)-pyrimidin-2-ylamino]-benzenesulfonamide]
IC50 [1]: 36 nM | IC50 (CDK1-cyclin B): 200 nM | IC50 (CDK9/cyclin T1): 2.51 nM | IC50 (GSK3b): 158 nM | IC50 (Aurora A kinase): 39.8 nM

CNc1nc(C)c(-c2ccnc(Nc3cccc(S(C)(=O)=O)c3)n2)s1 [Compound 27, (3-Methanesulfonyl-phenyl)-[4-(4-methyl-2-methylamino-thiazol-5-yl)-pyrimidin-2-yl]-amine]
IC50 [1]: 44 nM | IC50 [2, 3]: 7 nM | IC50 [2, 4]: 3 nM | IC50 (CDK1-cyclin B): 251 nM | IC50 (CDK9/cyclin T1): 1 nM | IC50 (CDK2-cycline E): 3.16 nM | IC50 (GSK3b): 100 nM | IC50 (Aurora A kinase): 316 nM | IC50 (CDK2-cyclin A): 6.31 nM

CNc1nc(C)c(-c2ccnc(Nc3ccc(C)c(S(=O)(=O)N4CCOCC4)c3)n2)s1 [Compound 37, [4-(4-Methyl-2-methylamino-thiazol-5-yl)-pyrimidin-2-yl]-[4-methyl-3-(morpholine-4-sulfonyl)-phenyl]-amine]
IC50 [1]: 390 nM | IC50 [2, 3]: > 10000 nM | IC50 [2, 4]: 3000 nM | IC50 (CDK2-cycline E): 3160 nM | IC50 (GSK3b): 1260 nM | IC50 (Aurora A kinase): 1000 nM

Cc1ccc(Nc2nccc(-c3sc(N)nc3C)n2)cc1S(=O)(=O)N1CCOCC1 [Compound 38, [4-(2-Amino-4-methyl-thiazol-5-yl)-pyrimidin-2-yl]-[4-methyl-3-(morpholine-4-sulfonyl)-phenyl]-amine]
IC50 [2, 3]: > 10000 nM | IC50 [2, 4]: > 10000 nM | IC50 (CDK9/cyclin T1): 25.1 nM | IC50 (GSK3b): 2000 nM | IC50 (Aurora A kinase): 501 nM

COCCNS(=O)(=O)c1cccc(Nc2nccc(-c3sc(N)nc3C)n2)c1 [Compound 55, 3-[4-(2-Amino-4-methyl-thiazol-5-yl)-pyrimidin-2-ylamino]-N-(2-methoxy-ethyl)-benzenesulfonamide]
IC50 [1]: 240 nM | IC50 [2, 3]: 2100 nM | IC50 [2, 4]: 270 nM | IC50 (CDK1-cyclin B): 3160 nM | IC50 (CDK9/cyclin T1): 31.6 nM | IC50 (CDK2-cycline E): 251 nM | IC50 (GSK3b): 501 nM | IC50 (Aurora A kinase): 158 nM | IC50 (CDK2-cyclin A): 2000 nM

CCNc1nc(C)c(-c2ccnc(Nc3ccc(N4CCNCC4)cc3)n2)s1 [Compound 59, [4-(2-Ethylamino-4-methyl-thiazol-5-yl)-pyrimidin-2-yl]-(4-piperazin-1-yl-phenyl)-amine]
IC50 [1]: 46 nM | IC50 [2, 3]: 630 nM | IC50 [2, 4]: 150 nM | IC50 (CDK1-cyclin B): 1000 nM | IC50 (CDK9/cyclin T1): 100 nM | IC50 (CDK2-cycline E): 158 nM | IC50 (Aurora A kinase): 79.4 nM | IC50 (CDK2-cyclin A): 501 nM

Cc1nc(CS(=O)(=O)c2cccs2)sc1-c1ccnc(Nc2ccc(N3CCOCC3)cc2)n1 [Compound 138, {4-[4-Methyl-2-(thiophene-2-sulfonylmethyl)-thiazol-5-yl]-pyrimidin-2-yl}-(4-morpholin-4-yl-phenyl)-amine]
IC50 (CDK2-cycline E): 3980 nM | IC50 (Aurora A kinase): 50.1 nM
